Assay results reported in the supplement of paper PMC11451515.

System: NOMO1
Experiment: cell viability relative to DMSO control; higher = less cytotoxic
Conditions: 48 h
Outline: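 Viability was expressed as a per-plate percentage of DMSO wells, with cell-free wells as background. Leukemia cells (NOMO1 or SEM at 500 cells/well, P12-Ichikawa at 1000 cells/well) were adapted for at least four passages in each medium and seeded in 1536-well plates (5 μl). Library compounds in DMSO were pin-dosed over an 11-point threefold series from 47 μM to 0.79 nM, and CellTiter-Glo One luminescence was read after 48 h at 37°C.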

[1] = HPLM + 10% dialyzed FBS, 0.000781 µM
[2] = HPLM + 10% dialyzed FBS, 0.00234 µM
[3] = HPLM + 10% dialyzed FBS, 0.00702 µM
[4] = HPLM + 10% dialyzed FBS, 0.0211 µM
[5] = HPLM + 10% dialyzed FBS, 0.0632 µM
[6] = HPLM + 10% dialyzed FBS, 0.19 µM
[7] = HPLM + 10% dialyzed FBS, 0.569 µM
[8] = HPLM + 10% dialyzed FBS, 1.71 µM
[9] = HPLM + 10% dialyzed FBS, 5.12 µM
[10] = HPLM + 10% dialyzed FBS, 15.4 µM
[11] = HPLM + 10% dialyzed FBS, 46.1 µM
[12] = RPMI 5 mM glucose + 10% FBS, 0.000781 µM
[13] = RPMI 5 mM glucose + 10% FBS, 0.00234 µM
[14] = RPMI 5 mM glucose + 10% FBS, 0.00702 µM
[15] = RPMI 5 mM glucose + 10% FBS, 0.0211 µM
[16] = RPMI 5 mM glucose + 10% FBS, 0.0632 µM
[17] = RPMI 5 mM glucose + 10% FBS, 0.19 µM
[18] = RPMI 5 mM glucose + 10% FBS, 0.569 µM
[19] = RPMI 5 mM glucose + 10% FBS, 1.71 µM
[20] = RPMI 5 mM glucose + 10% FBS, 5.12 µM
[21] = RPMI 5 mM glucose + 10% FBS, 15.4 µM
[22] = RPMI 5 mM glucose + 10% FBS, 46.1 µM
[23] = RPMI 5 mM glucose + 10% dialyzed FBS, 0.000781 µM
[24] = RPMI 5 mM glucose + 10% dialyzed FBS, 0.00234 µM
[25] = RPMI 5 mM glucose + 10% dialyzed FBS, 0.00702 µM
[26] = RPMI 5 mM glucose + 10% dialyzed FBS, 0.0211 µM
[27] = RPMI 5 mM glucose + 10% dialyzed FBS, 0.0632 µM
[28] = RPMI 5 mM glucose + 10% dialyzed FBS, 0.19 µM
[29] = RPMI 5 mM glucose + 10% dialyzed FBS, 0.569 µM
[30] = RPMI 5 mM glucose + 10% dialyzed FBS, 1.71 µM
[31] = RPMI 5 mM glucose + 10% dialyzed FBS, 5.12 µM
[32] = RPMI 5 mM glucose + 10% dialyzed FBS, 15.4 µM
[33] = RPMI 5 mM glucose + 10% dialyzed FBS, 46.1 µM

| Structure (SMILES) | cell viability [1] | cell viability [2] | cell viability [3] | cell viability [4] | cell viability [5] | cell viability [6] | cell viability [7] | cell viability [8] | cell viability [9] | cell viability [10] | cell viability [11] | cell viability [12] | cell viability [13] | cell viability [14] | cell viability [15] | cell viability [16] | cell viability [17] | cell viability [18] | cell viability [19] | cell viability [20] | cell viability [21] | cell viability [22] | cell viability [23] | cell viability [24] | cell viability [25] | cell viability [26] | cell viability [27] | cell viability [28] | cell viability [29] | cell viability [30] | cell viability [31] | cell viability [32] | cell viability [33] |
| --- | --- | --- | --- | --- | --- | --- | --- | --- | --- | --- | --- | --- | --- | --- | --- | --- | --- | --- | --- | --- | --- | --- | --- | --- | --- | --- | --- | --- | --- | --- | --- | --- | --- |
| CC1=C(C)C2=C(S1)[N]3C(=NN=C3[C@H](CC(=O)OC(C)(C)C)/N=C2/C4=CC=C(Cl)C=C4)C | 104% | 97.6% | 92% | 102% | 96.1% | 70.7% | 28.9% | 52.4% | 15.7% | 10.5% | 10.1% | 88.2% | 99.2% | 96.4% | 88.4% | 86.2% | 81.8% | 27.3% | 50.5% | 12.1% | 10.6% | 11.1% | 101% | 97.5% | 92.5% | 87.7% | 96.8% | 81.9% | 29.5% | 55.3% | 11.7% | 10.6% | 10.5% |
| C[C@@]12OC(=O)[C@@]1(NC(=O)[C@@H]2CCCl)[C@@H](O)[C@H]\3CCC\C=C3 | 109% | 114% | 104% | 104% | 97.9% | 51.4% | 9.1% | 6.95% | 4.84% | 2.62% | 1.53% | 86.2% | 94.4% | 104% | 103% | 100% | 66.2% | 11% | 6.39% | 7.27% | 3.01% | 1.15% | 90.2% | 110% | 106% | 96.8% | 102% | 62.7% | 11% | 5.88% | 4.34% | 2.85% | 1.4% |
| c1cc(OCCN2CCCCC2)cc(-c2n[nH]c3ccc(-c4nc[nH]n4)cc23)c1 | 116% | 120% | 129% | 127% | 137% | 103% | 127% | 127% | 114% | 122% | 100% | 115% | 115% | 113% | 105% | 103% | 122% | 112% | 111% | 103% | 104% | 109% | 99.5% | 97.1% | 101% | 108% | 101% | 109% | 114% | 105% | 111% | 101% | 109% |
| Cl.Cl.Fc1ccc(C(OCCN2CCN(CCCc3ccccc3)CC2)c2ccc(F)cc2)cc1 | 120% | 113% | 127% | 125% | 139% | 123% | 127% | 130% | 104% | 93.1% | 11.3% | 119% | 116% | 116% | 119% | 111% | 109% | 117% | 113% | 108% | 116% | 18.5% | 113% | 129% | 113% | 126% | 123% | 135% | 112% | 118% | 122% | 96.4% | 12.9% |
| Cn1cc(-c2ccc3ncc(Cc4ccc5ncccc5c4)n3n2)cn1 | 102% | 96.5% | 99.8% | 110% | 100% | 102% | 111% | 120% | 110% | 105% | 91.7% | 99.2% | 108% | 102% | 96.4% | 115% | 110% | 118% | 111% | 102% | 97.6% | 102% | 84.9% | 110% | 97.4% | 112% | 105% | 105% | 114% | 110% | 99% | 94.4% | 99.7% |
| Cc1c(OCC(F)(F)F)ccnc1C[S+]([O-])c1nc2ccccc2[nH]1 (stereo not drawn) | 100% | 100% | 107% | 96.6% | 108% | 118% | 122% | 97.7% | 113% | 122% | 110% | 110% | 114% | 105% | 113% | 105% | 108% | 119% | 103% | 118% | 108% | 117% | 102% | 111% | 111% | 109% | 113% | 113% | 115% | 120% | 128% | 113% | 123% |
| NC\1=N\C(=O)N(\C=N1)[C@H]2C[C@H](O)[C@@H](CO)O2 | 110% | 138% | 101% | 115% | 101% | 107% | 91.4% | 82.4% | 60.2% | 46.5% | 43.6% | 91.8% | 106% | 89.6% | 92.8% | 93.4% | 93.7% | 98.9% | 85.4% | 71.1% | 51.8% | 31.5% | 109% | 122% | 107% | 112% | 98.6% | 109% | 114% | 96.7% | 76.5% | 65.9% | 36.1% |
| CN(C)CCC=C1C2=C(C=CC=C2)\C=C/C3=C1C=CC=C3 |  |  |  |  |  |  |  |  |  |  |  | 108% | 100% | 95.5% | 98% | 95.9% | 90.3% | 98.7% | 106% | 94% | 77% | 16.4% | 98.7% | 99% | 107% | 104% | 114% | 103% | 107% | 95.3% | 99.3% | 66.6% | 21.2% |
